Tests used:
Assay in all cases: Test C greenhouse herbicide test, pre- and postemergence
Assay type in all cases: in vivo
[1] = test system: barnyardgrass (Echinochloa crus-galli)
Text: (§1) Seeds of plant species selected from blackgrass (Alopecurus myosuroides), ryegrass, Italian (Italian ryegrass, Lolium multiflorum), wheat (winter wheat, Triticum aestivum), galium (catchweed bedstraw, Galium aparine), corn (Zea mays), large crabgrass, large (large crabgrass, Digitaria sanguinalis), foxtail, giant (giant foxtail, Setaria faberii), johnsongrass (Sorghum halepense), lambsquarters (Chenopodium album), morningglory (Ipomoea coccinea), nutsedge, yellow (yellow nutsedge, Cyperus esculentus), pigweed (Amaranthus retroflexus), ragweed (common ragweed, Ambrosia elatior), soybean (Glycine max), barnyardgrass (Echinochloa crus-galli), oilseed rape (Brassica napus), waterhemp (common waterhemp, Amaranthus rudis), and velvetleaf (Abutilon theophrasti) were planted into a blend of loam soil and sand and treated preemergence with test chemicals formulated in a non-phytotoxic solvent mixture which included a surfactant.
(§2) At the same time, plants selected from these crop and weed species and also chickweed (common chickweed, Stellaria media), kochia (Kochia scoparia), and oat, wild (wild oat, Avena fatua), were planted in pots containing Redi-Earth® planting medium (Scotts Company, 14111 Scottslawn Road, Marysville, Ohio 43041) comprising spaghnum peat moss, vermiculite, wetting agent and starter nutrients and treated with postemergence applications of test chemicals formulated in the same manner. Plants ranged in height from 2 to 18 cm (1- to 4-leaf stage) for postemergence treatments. Treated plants and controls were maintained in a greenhouse for 13 to 15 d, after which time all species were compared to controls and visually evaluated. Plant response ratings, summarized in Table C, are based on a scale of 0 to 100 where 0 is no effect and 100 is complete control. A dash (-) response means no test result.

[2] = test system: blackgrass (Alopecurus myosuroides)
Text: as §1, §2

corn (Zea mays) = test system: corn (Zea mays)
Text: as §1, §2

[3] = test system: crabgrass, large (large crabgrass, Digitaria sanguinalis)
Text: as §1, §2

[4] = test system: foxtail, giant (giant foxtail, Setaria faberii)
Text: as §1, §2

[5] = test system: galium (catchweed bedstraw, Galium aparine)
Text: as §1, §2

[6] = test system: johnsongrass (Sorghum halepense)
Text: as §1, §2

[7] = test system: lambsquarters (Chenopodium album)
Text: as §1, §2

[8] = test system: morningglory (Ipomoea coccinea)
Text: as §1, §2

[9] = test system: nutsedge, yellow (yellow nutsedge, Cyperus esculentus)
Text: as §1, §2

[10] = test system: oilseed rape (Brassica napus)
Text: as §1, §2

[11] = test system: pigweed (Amaranthus retroflexus)
Text: as §1, §2

[12] = test system: ragweed (common ragweed, Ambrosia elatior)
Text: as §1, §2

[13] = test system: ryegrass, Italian (Italian ryegrass, Lolium multiflorum)
Text: as §1, §2

[14] = test system: velvetleaf (Abutilon theophrasti)
Text: as §1, §2

[15] = test system: waterhemp (common waterhemp, Amaranthus rudis)
Text: as §1, §2

[16] = Postemergence, 31 g ai/ha, 0 to 100 scale (0 no effect, 100 complete control)
[17] = Postemergence, 125 g ai/ha, scale 0 to 100, 0 is no effect, 100 is complete control
[18] = Postemergence, 250 g ai/ha, scale 0 to 100, 0 no effect, 100 complete control, 13 to 15 d
[19] = postemergence, 62 g ai/ha, scale 0 to 100, 0 no effect, 100 complete control
[20] = Postemergence, 31 g ai/ha, scale 0 to 100 (0 no effect, 100 complete control)
[21] = Postemergence, 62 g ai/ha, 0 to 100 scale (0 no effect, 100 complete control)
[22] = Postemergence, 250 g ai/ha, scale 0 to 100, 0 is no effect, 100 is complete control
[23] = postemergence, 125 g ai/ha, scale 0 to 100, 0 no effect, 100 complete control

CC(=O)Oc1c(C#N)nn(C)c(=O)c1-c1c(C)ccc2ccccc12 [Compound 98]
Barnyardgrass plant response rating [1, 16]: 60 | Plant response rating, Barnyardgrass [1, 17]: 98 | Plant response rating, Barnyardgrass [1, 18]: 98 | Barnyardgrass plant response rating [1, 19]: 85 | Blackgrass plant response rating [2, 16]: 5 | Plant response rating, Blackgrass [2, 17]: 50 | Plant response rating, Blackgrass [2, 18]: 70 | Blackgrass plant response rating [2, 19]: 30 | Corn plant response rating (corn (Zea mays); [16]): 5 | Plant response rating, Corn (corn (Zea mays); [17]): 15 | Plant response rating, Corn (corn (Zea mays); [18]): 15 | Corn plant response rating (corn (Zea mays); [19]): 0 | Plant response rating, Crabgrass, Large [3, 17]: 45 | Plant response rating, Crabgrass, Large [3, 18]: 70 | Crabgrass, Large plant response rating [3, 19]: 25 | Plant response rating, Foxtail, Giant [4, 17]: 98 | Plant response rating, Foxtail, Giant [4, 18]: 100 | Foxtail, Giant plant response rating [4, 19]: 95 | Plant response rating, Galium [5, 17]: 98 | Plant response rating, Galium [5, 18]: 98 | Galium plant response rating [5, 19]: 95 | Plant response rating, Johnsongrass [6, 17]: 10 | Plant response rating, Johnsongrass [6, 18]: 10 | Johnsongrass plant response rating [6, 19]: 5 | Plant response rating, Lambsquarters [7, 17]: 100 | Plant response rating, Lambsquarters [7, 18]: 100 | Lambsquarters plant response rating [7, 19]: 100 | Plant response rating, Morningglory [8, 17]: 100 | Plant response rating, Morningglory [8, 18]: 100 | Morningglory plant response rating [8, 19]: 100 | Plant response rating, Nutsedge, Yellow [9, 17]: 50 | Plant response rating, Nutsedge, Yellow [9, 18]: 60 | Nutsedge, Yellow plant response rating [9, 19]: 15 | Plant response rating, Oilseed Rape [10, 17]: 10 | Plant response rating, Oilseed Rape [10, 18]: 25 | Oilseed Rape plant response rating [10, 19]: 0 | Plant response rating, Pigweed [11, 17]: 100 | Plant response rating, Pigweed [11, 18]: 100 | Pigweed plant response rating [11, 19]: 100 | Plant response rating, Ragweed [12, 17]: 98 | Plant response rating, Ragweed [12, 18]: 100 | Ragweed plant response rating [12, 19]: 98 | Plant response rating, Ryegrass, Italian [13, 17]: 65 | Plant response rating, Ryegrass, Italian [13, 18]: 85 | Ryegrass, Italian plant response rating [13, 19]: 45 | Plant response rating, Velvetleaf [14, 17]: 75 | Plant response rating, Velvetleaf [14, 18]: 100 | Velvetleaf plant response rating [14, 19]: 70 | Plant response rating, Waterhemp [15, 17]: 100 | Plant response rating, Waterhemp [15, 18]: 100 | Waterhemp plant response rating [15, 19]: 100

Cc1ccc2ccccc2c1-c1c(OC(=O)N2CCOCC2)c(Br)nn(C)c1=O [Compound 176]
Plant response rating, Barnyardgrass [1, 20]: 5 | Barnyardgrass plant response rating [1, 21]: 5 | Plant response rating, Barnyardgrass [1, 22]: 20 | Barnyardgrass plant response rating [1, 23]: 10 | Plant response rating, Blackgrass [2, 20]: 0 | Blackgrass plant response rating [2, 21]: 0 | Plant response rating, Blackgrass [2, 22]: 0 | Blackgrass plant response rating [2, 23]: 0 | Plant response rating, Corn (corn (Zea mays); [20]): 0 | Corn plant response rating (corn (Zea mays); [21]): 10 | Plant response rating, Corn (corn (Zea mays); [22]): 5 | Corn plant response rating (corn (Zea mays); [23]): 0 | Plant response rating, Crabgrass, Large [3, 20]: 10 | Crabgrass, Large plant response rating [3, 21]: 5 | Plant response rating, Crabgrass, Large [3, 22]: 30 | Crabgrass, Large plant response rating [3, 23]: 20 | Plant response rating, Foxtail, Giant [4, 20]: 5 | Foxtail, Giant plant response rating [4, 21]: 15 | Plant response rating, Foxtail, Giant [4, 22]: 40 | Foxtail, Giant plant response rating [4, 23]: 35 | Plant response rating, Galium [5, 20]: 0 | Galium plant response rating [5, 21]: 5 | Plant response rating, Galium [5, 22]: 60 | Galium plant response rating [5, 23]: 60 | Plant response rating, Johnsongrass [6, 20]: 5 | Johnsongrass plant response rating [6, 21]: 5 | Plant response rating, Johnsongrass [6, 22]: 10 | Johnsongrass plant response rating [6, 23]: 5 | Plant response rating, Lambsquarters [7, 20]: 60 | Lambsquarters plant response rating [7, 21]: 80 | Plant response rating, Lambsquarters [7, 22]: 90 | Lambsquarters plant response rating [7, 23]: 80 | Plant response rating, Morningglory [8, 20]: 85 | Morningglory plant response rating [8, 21]: 85 | Plant response rating, Morningglory [8, 22]: 100 | Morningglory plant response rating [8, 23]: 98 | Plant response rating, Nutsedge, Yellow [9, 20]: 5 | Nutsedge, Yellow plant response rating [9, 21]: 5 | Plant response rating, Nutsedge, Yellow [9, 22]: 5 | Nutsedge, Yellow plant response rating [9, 23]: 5 | Plant response rating, Oilseed Rape [10, 20]: 95 | Oilseed Rape plant response rating [10, 21]: 95 | Plant response rating, Oilseed Rape [10, 22]: 95 | Oilseed Rape plant response rating [10, 23]: 95 | Plant response rating, Pigweed [11, 20]: 20 | Pigweed plant response rating [11, 21]: 30 | Plant response rating, Pigweed [11, 22]: 75 | Pigweed plant response rating [11, 23]: 50 | Plant response rating, Ragweed [12, 20]: 0 | Ragweed plant response rating [12, 21]: 0 | Plant response rating, Ragweed [12, 22]: 0 | Ragweed plant response rating [12, 23]: 0 | Plant response rating, Ryegrass, Italian [13, 20]: 0 | Ryegrass, Italian plant response rating [13, 21]: 0 | Plant response rating, Ryegrass, Italian [13, 22]: 10 | Ryegrass, Italian plant response rating [13, 23]: 0 | Plant response rating, Velvetleaf [14, 20]: 0 | Velvetleaf plant response rating [14, 21]: 25 | Plant response rating, Velvetleaf [14, 22]: 80 | Velvetleaf plant response rating [14, 23]: 75 | Plant response rating, Waterhemp [15, 20]: 20 | Waterhemp plant response rating [15, 21]: 40 | Plant response rating, Waterhemp [15, 22]: 55 | Waterhemp plant response rating [15, 23]: 60
